From ChEMBL document CHEMBL3822376, “Potent anticholinesterasic and neuroprotective pyranotacrines as inhibitors of beta-amyloid aggregation, oxidative stress and tau-phosphorylation for Alzheimer's disease” (Eur J Med Chem, 2016)
Active and inactive are the calls of the source. The rule behind the calls is not given here.

system: SH-SY5Y; test: Neuroprotective activity in human SH-SY5Y cells assessed as reversal of 20 nM okadaic acid-induced cell death at 1 to 10 uM after 24 hrs by XTT assay; type: functional, cell-based; details: not given

Compound	Activity
CCOC(=O)C1=C(C)Oc2nc3c(c(N)c2C1c1cc2cccc(OC)c2nc1Cl)CCCC3 (configuration not stated)	Active
COc1ccc2cc(C3C4=C(CC(C)(C)CC4=O)Oc4nc5c(c(N)c43)CCCCC5)c(Cl)nc2c1 (configuration not stated)	Active
CCOC(=O)C1=C(C)Oc2nc3c(c(N)c2C1c1cc2ccccc2nc1Cl)CCCC3 (configuration not stated)	Active

system: SH-SY5Y; test: Neuroprotective activity in human SH-SY5Y cells assessed as reversal of 15 nM okadaic acid-induced cell death at 1 to 10 uM after 24 hrs by XTT assay; type: functional, cell-based; details: not given

Compound	Activity
CCOC(=O)C1=C(C)Oc2nc3c(c(N)c2C1c1cc2cccc(OC)c2nc1Cl)CCCC3 (configuration not stated)	Active
CCOC(=O)C1=C(C)Oc2nc3c(c(N)c2C1c1cc2ccccc2nc1Cl)CCCC3 (configuration not stated)	Active

system: SH-SY5Y; test: Neuroprotective activity against 20 nM okadaic acid-induced cell death in human SH-SY5Y cells at 5 to 10 uM after 24 hrs by phase contrast microscopic analysis; type: functional, cell-based; details: not given

Compound	Activity
CCOC(=O)C1=C(C)Oc2nc3c(c(N)c2C1c1cc2ccccc2nc1Cl)CCCC3 (configuration not stated)	Active

system: SH-SY5Y; test: Neuroprotective activity against amyloid beta (1 to 40)-induced cell death in human SH-SY5Y cells at 10 uM after 48 hrs by phase contrast microscopic analysis; type: functional, cell-based; details: not given

Compound	Activity
CCOC(=O)C1=C(C)Oc2nc3c(c(N)c2C1c1cc2ccccc2nc1Cl)CCCC3 (configuration not stated)	Active

biological target: Acetylcholinesterase (Homo sapiens) (UniProt P22303); test: Inhibition of AChE in human SH-SY5Y cells assessed as decrease in okadaic acid-induced tau phosphorylation at Ser-396 residue at 10 uM after 24 hrs by Western blot analysis; type: cell-based; details: not given
Sequence (P22303 whole entry): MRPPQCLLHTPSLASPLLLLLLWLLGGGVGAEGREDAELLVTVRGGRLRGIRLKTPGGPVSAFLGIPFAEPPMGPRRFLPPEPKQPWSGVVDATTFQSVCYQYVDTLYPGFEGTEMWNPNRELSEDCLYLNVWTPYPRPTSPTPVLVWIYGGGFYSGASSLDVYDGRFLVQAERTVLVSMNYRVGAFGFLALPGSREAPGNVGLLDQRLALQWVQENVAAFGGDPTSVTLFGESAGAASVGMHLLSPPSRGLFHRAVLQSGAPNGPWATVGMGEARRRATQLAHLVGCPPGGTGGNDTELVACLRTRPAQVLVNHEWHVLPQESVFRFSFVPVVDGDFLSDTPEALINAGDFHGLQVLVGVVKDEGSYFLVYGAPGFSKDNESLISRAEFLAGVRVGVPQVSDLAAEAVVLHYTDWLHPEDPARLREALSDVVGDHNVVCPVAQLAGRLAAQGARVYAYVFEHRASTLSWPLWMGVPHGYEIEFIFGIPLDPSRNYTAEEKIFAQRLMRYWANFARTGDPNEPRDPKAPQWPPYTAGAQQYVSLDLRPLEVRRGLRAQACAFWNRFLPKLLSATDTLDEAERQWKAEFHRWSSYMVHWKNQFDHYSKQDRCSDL

Compound	inhibition
CCOC(=O)C1=C(C)Oc2nc3c(c(N)c2C1c1cc2ccccc2nc1Cl)CCCC3 (configuration not stated)	Active

system: SH-SY5Y; test: Neuroprotective activity against amyloid beta (1 to 40)-induced cell death in human SH-SY5Y cells assessed as increase in cell viability at 10 uM after 48 hrs by XTT assay; type: functional, cell-based; details: not given

Compound	Activity
CCOC(=O)C1=C(C)Oc2nc3c(c(N)c2C1c1cc2ccccc2nc1Cl)CCCC3 (configuration not stated)	Active

biological target: Cholinesterase (Equus caballus) (UniProt P81908); test: Inhibition of horse serum BuChE using […] as substrate at 50 uM preincubated for 15 mins followed by substrate addition by Ellman's method relative to control; details: not given
Sequence (P81908 whole entry): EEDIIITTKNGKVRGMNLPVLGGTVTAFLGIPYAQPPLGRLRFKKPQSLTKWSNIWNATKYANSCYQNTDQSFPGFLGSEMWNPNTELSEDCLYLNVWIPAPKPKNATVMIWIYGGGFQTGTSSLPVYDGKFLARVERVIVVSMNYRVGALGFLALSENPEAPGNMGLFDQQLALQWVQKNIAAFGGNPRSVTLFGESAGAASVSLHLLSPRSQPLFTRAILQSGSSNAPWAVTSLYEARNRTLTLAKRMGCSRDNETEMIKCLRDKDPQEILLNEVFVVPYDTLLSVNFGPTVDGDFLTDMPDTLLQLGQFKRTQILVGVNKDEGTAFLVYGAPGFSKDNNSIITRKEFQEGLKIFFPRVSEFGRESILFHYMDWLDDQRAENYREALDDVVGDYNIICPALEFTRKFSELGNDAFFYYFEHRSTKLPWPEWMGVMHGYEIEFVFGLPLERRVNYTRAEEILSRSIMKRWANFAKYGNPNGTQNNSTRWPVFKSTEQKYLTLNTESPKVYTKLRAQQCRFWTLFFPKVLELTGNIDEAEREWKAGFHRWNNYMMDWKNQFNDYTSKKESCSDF

Compound	inhibition [%]
CCOC(=O)C1=C(C)Oc2nc3c(c(N)c2C1c1cc2ccccc2nc1Cl)CCCC3 (configuration not stated)	50

biological target: Acetylcholinesterase (Homo sapiens) (UniProt P22303); test: Inhibition of AChE in human SH-SY5Y cells assessed as decrease in okadaic acid-induced tau oligomerization at 10 uM after 24 hrs by Western blot analysis; type: cell-based; details: not given

Compound	inhibition
CCOC(=O)C1=C(C)Oc2nc3c(c(N)c2C1c1cc2ccccc2nc1Cl)CCCC3 (configuration not stated)	Active

biological target: Acetylcholinesterase (Homo sapiens) (UniProt P22303); test: Inhibition of AChE in human SH-SY5Y cells assessed as reduction in rotenone/oligomycin-A-induced tau phosphorylation at Ser-396 residue at 10 uM after 24 hrs by Western blot analysis; type: cell-based; details: not given

Compound	inhibition
CCOC(=O)C1=C(C)Oc2nc3c(c(N)c2C1c1cc2ccccc2nc1Cl)CCCC3 (configuration not stated)	Active

biological target: Acetylcholinesterase (Homo sapiens) (UniProt P22303); test: Inhibition of AChE in human SH-SY5Y cells assessed as inhibition of amyloid beta (1 to 40) (unknown origin)-induced amyloid beta aggregation at 5 to 10 uM measured every 24 hrs for 7 days by Thioflavin T based fluorometric assay; type: cell-based; details: not given

Compound	inhibition
CCOC(=O)C1=C(C)Oc2nc3c(c(N)c2C1c1cc2ccccc2nc1Cl)CCCC3 (configuration not stated)	Active

biological target: Acetylcholinesterase (Homo sapiens) (UniProt P22303); test: Inhibition of AChE in human SH-SY5Y cells assessed as inhibition of amyloid beta (1 to 40) (unknown origin)-induced tau phosphorylation at Ser-396 residue at 5 to 10 uM after 48 hrs by Western blot analysis; type: cell-based; details: not given

Compound	inhibition
CCOC(=O)C1=C(C)Oc2nc3c(c(N)c2C1c1cc2ccccc2nc1Cl)CCCC3 (configuration not stated)	Active

biological target: Acetylcholinesterase (Electrophorus electricus, UniProt O42275); test: not given; details: not given
Sequence (O42275 whole entry): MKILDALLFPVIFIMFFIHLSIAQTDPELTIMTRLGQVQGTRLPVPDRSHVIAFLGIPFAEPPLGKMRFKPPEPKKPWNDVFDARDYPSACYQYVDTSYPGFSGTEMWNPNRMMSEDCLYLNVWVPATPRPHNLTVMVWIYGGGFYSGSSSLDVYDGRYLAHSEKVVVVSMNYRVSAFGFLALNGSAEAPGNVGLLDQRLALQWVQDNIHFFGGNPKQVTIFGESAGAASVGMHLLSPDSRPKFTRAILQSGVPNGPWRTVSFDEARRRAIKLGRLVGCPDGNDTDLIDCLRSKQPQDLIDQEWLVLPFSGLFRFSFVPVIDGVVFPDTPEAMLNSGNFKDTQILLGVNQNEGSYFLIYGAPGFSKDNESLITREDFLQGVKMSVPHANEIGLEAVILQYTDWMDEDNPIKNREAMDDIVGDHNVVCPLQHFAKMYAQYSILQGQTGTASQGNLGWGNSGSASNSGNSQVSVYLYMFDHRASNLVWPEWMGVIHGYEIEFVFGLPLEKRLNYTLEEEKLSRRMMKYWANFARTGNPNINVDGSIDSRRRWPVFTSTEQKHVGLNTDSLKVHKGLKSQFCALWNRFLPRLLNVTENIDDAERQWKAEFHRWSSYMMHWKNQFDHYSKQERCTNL

Compound	IC50 [µM]
CCOC(=O)C1=C(C)Oc2nc3c(c(N)c2C1c1cc2cccc(OC)c2nc1Cl)CCCC3 (configuration not stated)	0.61
COc1ccc2cc(C3C4=C(CC(C)(C)CC4=O)Oc4nc5c(c(N)c43)CCCCC5)c(Cl)nc2c1 (configuration not stated)	2.81
CCOC(=O)C1=C(C)Oc2nc3c(c(N)c2C1c1cc2ccccc2nc1Cl)CCCC3 (configuration not stated)	0.48

system: HepG2; test: not given; details: not given

Compound	EC50 [µM]
CCOC(=O)C1=C(C)Oc2nc3c(c(N)c2C1c1cc2cccc(OC)c2nc1Cl)CCCC3 (configuration not stated)	1080
CCOC(=O)C1=C(C)Oc2nc3c(c(N)c2C1c1cc2ccccc2nc1Cl)CCCC3 (configuration not stated)	4820

system: SH-SY5Y; test: cells; details: Homo sapiens, 24 h
Description: Neuroprotective activity against rotenone/oligomycin-A-induced cell death in human SH-SY5Y cells assessed as increase in cell viability after 24 hrs by XTT assay

Compound	EC50 [µM]
CCOC(=O)C1=C(C)Oc2nc3c(c(N)c2C1c1cc2cccc(OC)c2nc1Cl)CCCC3 (configuration not stated)	1.95
COc1ccc2cc(C3C4=C(CC(C)(C)CC4=O)Oc4nc5c(c(N)c43)CCCCC5)c(Cl)nc2c1 (configuration not stated)	5.6
CCOC(=O)C1=C(C)Oc2nc3c(c(N)c2C1c1cc2ccccc2nc1Cl)CCCC3 (configuration not stated)	1.54

system: not listed separately; test: in vitro; details: human, SH-SY5Y cells
Description: Neurotoxicity in human SH-SY5Y cells assessed as cell viability at 10 uM after 24 hrs by XTT assay relative to control

Compound	viability at 24 h, 10 µM [%]
CCOC(=O)C1=C(C)Oc2nc3c(c(N)c2C1c1cc2cccc(OC)c2nc1Cl)CCCC3 (configuration not stated)	96.5
COc1ccc2cc(C3C4=C(CC(C)(C)CC4=O)Oc4nc5c(c(N)c43)CCCCC5)c(Cl)nc2c1 (configuration not stated)	97.3
CCOC(=O)C1=C(C)Oc2nc3c(c(N)c2C1c1cc2ccccc2nc1Cl)CCCC3 (configuration not stated)	96.5

system: not listed separately; test: in vitro; details: human, SH-SY5Y cells; remark: another data set of the same source
Description: Neurotoxicity in human SH-SY5Y cells assessed as cell viability at 25 uM after 24 hrs by XTT assay relative to control

Compound	viability at 24 h, 25 µM [%]
CCOC(=O)C1=C(C)Oc2nc3c(c(N)c2C1c1cc2cccc(OC)c2nc1Cl)CCCC3 (configuration not stated)	100
COc1ccc2cc(C3C4=C(CC(C)(C)CC4=O)Oc4nc5c(c(N)c43)CCCCC5)c(Cl)nc2c1 (configuration not stated)	118
CCOC(=O)C1=C(C)Oc2nc3c(c(N)c2C1c1cc2ccccc2nc1Cl)CCCC3 (configuration not stated)	95.5

system: not listed separately; test: in vitro; details: human, SH-SY5Y cells; remark: another data set of the same source
Description: Neurotoxicity in human SH-SY5Y cells assessed as cell viability at 50 uM after 24 hrs by XTT assay relative to control

Compound	viability at 24 h, 50 µM [%]
CCOC(=O)C1=C(C)Oc2nc3c(c(N)c2C1c1cc2cccc(OC)c2nc1Cl)CCCC3 (configuration not stated)	99.5
COc1ccc2cc(C3C4=C(CC(C)(C)CC4=O)Oc4nc5c(c(N)c43)CCCCC5)c(Cl)nc2c1 (configuration not stated)	103
CCOC(=O)C1=C(C)Oc2nc3c(c(N)c2C1c1cc2ccccc2nc1Cl)CCCC3 (configuration not stated)	93.6

system: not listed separately; test: in vitro; details: human, HepG2 cells
Description: Hepatotoxicity in human HepG2 cells assessed as reduction in cell viability by MTT assay

Compound	EC50 [µM]
COc1ccc2cc(C3C4=C(CC(C)(C)CC4=O)Oc4nc5c(c(N)c43)CCCCC5)c(Cl)nc2c1 (configuration not stated)	330

system: not listed separately; test: in vitro; details: human, HepG2 cells; remark: another data set of the same source

Compound	selectivity ratio
CCOC(=O)C1=C(C)Oc2nc3c(c(N)c2C1c1cc2ccccc2nc1Cl)CCCC3 (configuration not stated)	27

system: not listed separately; test: in vitro; details: human, SH-SY5Y cells; remark: another data set of the same source
Description: Neurotoxicity in human SH-SY5Y cells assessed as cell viability at 0.1 uM after 24 hrs by XTT assay relative to control

Compound	viability at 24 h, 0.1 µM [%]
CCOC(=O)C1=C(C)Oc2nc3c(c(N)c2C1c1cc2cccc(OC)c2nc1Cl)CCCC3 (configuration not stated)	107
COc1ccc2cc(C3C4=C(CC(C)(C)CC4=O)Oc4nc5c(c(N)c43)CCCCC5)c(Cl)nc2c1 (configuration not stated)	92.2
CCOC(=O)C1=C(C)Oc2nc3c(c(N)c2C1c1cc2ccccc2nc1Cl)CCCC3 (configuration not stated)	110

system: not listed separately; test: in vitro; details: human, SH-SY5Y cells; remark: another data set of the same source
Description: Neurotoxicity in human SH-SY5Y cells assessed as cell viability at 1 uM after 24 hrs by XTT assay relative to control

Compound	viability at 24 h, 1 µM [%]
CCOC(=O)C1=C(C)Oc2nc3c(c(N)c2C1c1cc2cccc(OC)c2nc1Cl)CCCC3 (configuration not stated)	91.9
COc1ccc2cc(C3C4=C(CC(C)(C)CC4=O)Oc4nc5c(c(N)c43)CCCCC5)c(Cl)nc2c1 (configuration not stated)	97.3
CCOC(=O)C1=C(C)Oc2nc3c(c(N)c2C1c1cc2ccccc2nc1Cl)CCCC3 (configuration not stated)	104

system: not listed separately; test: in vitro; details: human, SH-SY5Y cells; remark: another data set of the same source
Description: Neurotoxicity in human SH-SY5Y cells assessed as cell viability at 5 uM after 24 hrs by XTT assay relative to control

Compound	viability at 24 h, 5 µM [%]
CCOC(=O)C1=C(C)Oc2nc3c(c(N)c2C1c1cc2cccc(OC)c2nc1Cl)CCCC3 (configuration not stated)	100
COc1ccc2cc(C3C4=C(CC(C)(C)CC4=O)Oc4nc5c(c(N)c43)CCCCC5)c(Cl)nc2c1 (configuration not stated)	111
CCOC(=O)C1=C(C)Oc2nc3c(c(N)c2C1c1cc2ccccc2nc1Cl)CCCC3 (configuration not stated)	99.7
